Consider one compound from paper PMC8710297, “Identification of potent SENP1 inhibitors that inactivate SENP1/JAK2/STAT signaling pathway and overcome platinum drug resistance in ovarian cancer” (Clinical and Translational Medicine, 2021).

The test concerns the target T1, SENP1(C603A) (Homo sapiens, UniProt Q9P0U3, C603A).
T1 construct: GST; made in house
T1 sequence (Q9P0U3 1-644 C603A): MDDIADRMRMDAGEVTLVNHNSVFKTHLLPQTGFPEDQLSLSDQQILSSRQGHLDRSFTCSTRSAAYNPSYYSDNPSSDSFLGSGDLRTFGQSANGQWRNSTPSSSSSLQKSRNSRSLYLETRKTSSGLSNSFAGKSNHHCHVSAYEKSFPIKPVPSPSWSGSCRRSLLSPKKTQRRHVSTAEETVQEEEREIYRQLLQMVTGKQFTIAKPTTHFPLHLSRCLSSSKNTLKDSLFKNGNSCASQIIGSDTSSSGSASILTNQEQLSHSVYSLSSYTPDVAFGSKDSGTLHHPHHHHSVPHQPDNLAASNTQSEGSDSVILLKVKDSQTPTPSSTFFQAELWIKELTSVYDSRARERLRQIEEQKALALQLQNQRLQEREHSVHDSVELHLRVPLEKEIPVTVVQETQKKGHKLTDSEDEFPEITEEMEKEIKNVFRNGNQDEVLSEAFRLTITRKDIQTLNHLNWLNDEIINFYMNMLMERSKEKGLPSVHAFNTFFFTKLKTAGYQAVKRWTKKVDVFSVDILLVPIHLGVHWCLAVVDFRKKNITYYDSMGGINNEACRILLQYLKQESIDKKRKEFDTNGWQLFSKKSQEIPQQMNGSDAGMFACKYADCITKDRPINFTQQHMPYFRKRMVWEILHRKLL
Kind of test: UPLC-MS/MS of UA associated with IPs of SENP1 proteins. The class given is binding. The note with it: mass-spec and surface plasmon resonance analyses. As to the method: FIGURE 2 UA directly interacts with Sentrin‐specific protease 1 (SENP1). (A) Cellular thermal shift assay to examine the interaction of UA with SENP1. IGROV1 CR cells pretreated with MG132 (10 μM, 1 h) were incubated with DMSO or UA for 4 h before being shifted to indicated temperatures. SENP1 stability was analyzed by using Western blot against SENP1 antibody. Right panel, quantification of non‐denatured SENP1 fraction shown in the left panel. (B) Cell‐free thermal shift assay to examine interactions of UA with SENP1. Purified SENP1 proteins were incubated with DMSO or UA for 4 h before being shifted to the indicated temperatures. SENP1 stability was analyzed by using Western blot against SENP1 antibody. Right panel, quantification of non‐denatured SENP1 fraction shown in the left panel. […] Stability of SENP1(C603A) was analyzed by using Western blot against SENP1 antibody. […] Left; Ultra‐high performance liquid‐chromatography‐MS/MS analyses of associated UA in indicated samples, right; quantification of data shown in left (the binding affinity of UA with SENP1‐C603A was normalized as 1). […]
Cell viability was detected using Sulforhodamine B (SRB) assay as described previously (3).
Absorbance at 51 0 nm was detected using a SpectraMax Re a d e r (Molecular Devices) and […]

Turning to `C[C@H]1[C@H](C)CC[C@]2(C(=O)O)CC[C@]3(C)C(=CC[C@@H]4[C@@]5(C)CC[C@H](O)C(C)(C)[C@@H]5CC[C@]43C)[C@H]12` [UA, ursolic acid, reference compound], the “binding of UA to SENP1(C603A) compared to SENP1” value is “decreased binding affinities”.
